In patent US5397781A, “Pyrimidine derivatives” (Mochida Pharmaceutical Company, Limited, priority 1992, dated 1995):
Like-named read-outs stand apart in the source and are kept apart here.

Legend:
[1] = test system: macrophages; experiment: Inhibitory effect on cholesteryl ester accumulation in macrophages; assay type: cell-based, mouse (ddy-family male mice); conditions: Macrophage, read-out: Inhibition activity on cholesteryl ester accumulation (IC50 grade)
Protocol: Inhibitory effect on cholesteryl ester accumulation in macrophages.
Namely resident peritoneal cells suspended in phosphate-buffered saline (PBS) were plated in plastic Petri dishes (35 mm×10 mm) at a density of 2×10^6 cells. The adherent macrophages were cultured overnight at 37° C. in Dalbecco's modified Eagle medium (DME) containing 10% fetal bovine serum (FCS) under humidified 5% CO2. […] After discarding the medium, each macrophage monolayer was washed with PBS and lipids were extracted with hexane/isopropyl alcohol (3:2). Cholesteryl esters in the extract were separated by thin-layer chromatography and the radioactivity was measured by liquid scintillation counter.

[2] = test system: serum total cholesterol; experiment: Hypocholesterolemic effect on cholesterol feeding rats; assay type: in vivo, male Wistar rats; conditions: Rattus norvegicus, oral, high cholesterol diet rats, read-out: % reduction of serum total cholesterol; for inhibition in vivo at 30 mg/kg: 30 mg/kg/day; for inhibition in vivo at 10 mg/kg: 10 mg/kg/day
Protocol: Hypocholesterolemic effect on cholesterol feeding rats. Male Wistar rats aged 7 weeks old were fed a diet (CE®) supplemented with 2%(w/w) cholesterol, 0.5%(w/w) sodium cholate, 10%(w/w) lard, 0.2%(w/w) propylthiouracyl and 5%(w/w) sucrose, for 3 days. Following 3 days, the compounds of the present invention were administered orally, and the animals were maintained with the high cholesterol diet. On the next day of final drug administration, blood was drown and serum total cholesterol-levels were measured enzymatically by autoanalyzer. CL277082 was used as a reference compound.

[3] = molecular target: T1, ACAT (Rattus norvegicus, UniProt Q7TQM4); experiment: Inhibitory effect on microsomal ACAT activity in rat liver; assay type: biochemical; conditions: rat liver microsomes; read-out: IC50 (50% inhibition of cholesterol esterification)
T1 construct: Liver microsomes as an enzyme sample of ACAT were prepared from overnight-fasted male rats; from tissue; host or cells: liver of overnight-fasted male rats, 6 weeks old; microsomes
T1 sequence (Q7TQM4 1-524): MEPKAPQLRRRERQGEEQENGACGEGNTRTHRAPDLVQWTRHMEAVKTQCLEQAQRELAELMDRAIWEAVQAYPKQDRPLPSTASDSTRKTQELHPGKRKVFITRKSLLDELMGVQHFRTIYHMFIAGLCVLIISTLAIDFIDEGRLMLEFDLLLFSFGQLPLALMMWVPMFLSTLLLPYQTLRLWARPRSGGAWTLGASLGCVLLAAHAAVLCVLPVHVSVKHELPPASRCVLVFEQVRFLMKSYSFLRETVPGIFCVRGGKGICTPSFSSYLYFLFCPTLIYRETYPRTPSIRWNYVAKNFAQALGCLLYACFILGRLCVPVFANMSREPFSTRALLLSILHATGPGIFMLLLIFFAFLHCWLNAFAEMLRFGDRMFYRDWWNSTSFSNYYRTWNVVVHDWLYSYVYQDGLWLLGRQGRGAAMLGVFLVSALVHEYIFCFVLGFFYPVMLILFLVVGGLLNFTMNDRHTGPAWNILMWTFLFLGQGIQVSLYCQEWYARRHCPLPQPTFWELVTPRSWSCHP

[4] = test system: male Wistar rats; experiment: Acute toxicity; assay type: in vivo; conditions: single oral dose 1 g/kg, 7 days observation
Excerpt: The pyrimidine derivatives of the present invention were examined for acute toxicity by using male Wistar rats fasted over night aged 7 weeks old.

[5] = mouse peritoneal macrophages, β-VLDL, [3H]oleic acid, 3 hrs

IC50 [1, 5] [nM] | IC50 [3] [nM] | SMILES | further results
100 to 1000 | 160 | CCCCCCCN(Cc1ccccc1)c1nc(C)nc(SC)c1NC(=O)CCCCN(CCC)c1ccccc1 [Example 249, N-[4-(N-benzyl-N-heptylamino)-2-methyl-6-methylthiopyrimidin-5-yl]-5-(N-phenyl-N-propylamino)pentanamide] | 
 | 9.6 | CCCCN(CCCC)c1ncnc(SC)c1NC(=O)CCCCN(CCC)c1ccccc1 [Example 250, N-[4-(N,N-dibutylamino)-6-methylthiopyrimidin-5-yl]-5-(N-phenyl-N-propylamino)pentanamide] | 
 | 33 | CCCCCCN(CCCCC(=O)Nc1c(SC)nc(C)nc1N(CC)CC)c1ccccc1 [Example 252, N-[4-(N,N-diethylamino)-2-methyl-6-methylthiopyrimidin-5-yl]-5-(N-hexyl-N-phenylamino)pentanamide] | 
 | 100 | CCCSc1nc(C)nc(N(CCC)c2ccccc2)c1NC(=O)CCCN(CCC)c1ccccc1 [Example 256, N-[2-methyl-4-(N-phenyl-N-propylamino)-6-propylthiopyrimidin-5-yl]-4-(N-phenyl-N-propylamino)butanamide] | 
 | 220 | CCCCCCSc1nc(C)nc(N(CCC)c2ccccc2)c1NC(=O)CCCN(CCC)c1ccccc1 [Example 257, N-[4-hexylthio-2-methyl-6-(N-phenyl-N-propylamino)pyrimidin-5-yl]-4-(N-phenyl-N-propylamino)butanamide] | 
 | 230 | CCCN(CCCC(=O)Nc1c(SCc2ccccc2)nc(C)nc1N(CCC)c1ccccc1)c1ccccc1 [Example 258, N-[4-benzylthio-2-methyl-6-(N-phenyl-N-propylamino)pyrimidin-5-yl]-4-(N-phenyl-N-propylamino)butanamide] | 
 | 76 | CCCN(CCCC(=O)Nc1c(SCc2ccccc2)nc(C)nc1N(CC)CC)c1ccccc1 [Example 259, N-[4-benzylthio-6-(N,N-dietylamino)-2-methylpyrimidin-5-yl]-4-(N-phenyl-N-propylamino)butanamide] | 
 | 23 | CCCCCCN(CCCC(=O)Nc1c(SCCC)nc(C)nc1N(CC)CC)c1ccccc1 [Example 261, N-[4-(N,N-dietylamino)-2-methyl-6-propylthiopyrimidin-5-yl]-4-(N-hexyl-N-phenylamino)butanamide] | 
 | 100 | CCCN(CCCC(=O)Nc1c(OCc2ccccc2)nc(C)nc1C(C)C)c1ccccc1 [Example 263, N-(4-benzyloxy-6-isopropyl-2-methylpyrimidin-5-yl)-4-(N-phenyl-N-propylamino)butanamide] | 
 | 170 | CCCN(CCCC(=O)Nc1c(C(C)C)nc(C)nc1N(CC)CC)c1ccccc1 [Example 266, N-[4-(N,N-diethylamino)-6-isopropyl-2-methylpyrimidin-5-yl]-4-(N-phenyl-N-propylamino)butanamide] | 
 | 56 | CCCN(CCCC(=O)Nc1c(SC)nc(C)nc1C(C)C)c1ccccc1 [Example 268, N-(4-isopropyl-2-methyl-6-methylthiopyrimidin-5-yl)-4-(N-phenyl-N-propylamino)butanamide] | 
 | 37 | CCCCCCN(CCCC(=O)Nc1c(SC)nc(C)nc1N(CC)CC)c1ccc(Br)cc1 [Example 272, 4-[N-(4-bromophenyl)-N-hexylamino]-N-[4-(N,N-diethylamino)-2-methyl-6-methylthiopyrimidin-5yl]butanamide] | 

The remaining lines, values behind:

SMILES | IC50 [1, 5] [nM] | IC50 [3] [nM] | further results
CCCCCCCN(Cc1ccc(CC(C)(C)C)cc1)C(=O)Nc1ccc(F)cc1F [CL277082, (N'-2,4-difluorophenyl)-N-[[4-(2,2-dimethylpropyl)phenyl]methyl]-N-heptylurea, reference compound] |  |  | IC50 ([1]; Mus musculus, 3 h): 1000 to 10000 nM; inhibition in vivo at 30 mg/kg [2]: 52%
CCCCCCCN(Cc1ccccc1)c1nc(C)nc(S)c1NC(=O)CCCN(CCC)c1ccccc1 [Example 148, N-[4-(N-benzyl-N-heptylamino)-6-mercapto-2-methylpyrimidin-5-yl]-4-(N-phenyl-N propylamino)butanamide] | 10 to 100 | 55 | 
CCCN(CCCC(=O)Nc1c(S)ncnc1N(CCC)c1ccccc1)c1ccccc1 [Example 149, N-[4-mercapto-6-(N-phenyl-N-propylamino)pyrimidin-5-yl]-(N-phenyl-N-propylamino)butanamide] |  | 140 | inhibition in vivo at 30 mg/kg [2]: 21%
CCCCN(CCCC)c1nc(C)nc(OCC)c1NC(=O)CCCCN(CCC)c1ccccc1 [Example 196, N-[4-(N,N-dibutylamino)-6-ethoxy-2-methylpyrimidin-5-yl]-5-(N-phenyl-N-propylamino)pentanamide] |  |  | inhibition in vivo at 10 mg/kg [2]: 48%; lethal incident (acute toxicity) [4]: no lethal incident was observed
CCCN(CCC(=O)Nc1c(SC)nc(C)nc1N(CC)CC)c1ccccc1 [Example 216, N-[4-(N,N-diethylamino)-2-methyl-6-methylthiopyrimidin-5-yl]-3-(N-phenyl-N-propylamino)propionamide] |  | 120 | inhibition in vivo at 100 mg/kg ([2]; 100 mg/kg/day): 33%
CCCN(CCCC(=O)Nc1c(SC)nc(C)nc1N(C)C)c1ccccc1 [Example 219, N-[4-(N,N-dimethylamino)-2-methyl-6-methylthiopyrimidin-5-yl]-4-(N-phenyl-N-propylamino)butanamide] | 100 to 1000 | 130 | 
CCCN(CCCC(=O)Nc1c(SC)nc(C)nc1N(CC)CC)c1ccccc1 [Example 220, N-[4-(N,N-diethylamino)-2-methyl-6-methylthiopyrimidin-5-yl]-4-(N-phenyl-N-propylamino)butanamide] | 100 to 1000 | 52 | inhibition in vivo at 30 mg/kg [2]: 23%
CCCCN(CCCC)c1nc(C)nc(SC)c1NC(=O)CCCN(CCC)c1ccccc1 [Example 221, N-[4-(N,N-dibutylamino)-2-methyl-6-methylthiopyrimidin-5-yl]-4-(N-phenyl-N-propylamino)butanamide] | 10 to 100 | 29 | 
CCCCCCCN(Cc1ccccc1)c1nc(C)nc(SC)c1NC(=O)CCCN(CCC)c1ccccc1 [Example 223, N-[4-(N-benzyl-N-heptylamino)-2-methyl-6-methylthiopyrimidin-5-yl]-4-(N-phenyl-N-propylamino)butanamide] | 10 to 100 | 64 | inhibition in vivo at 10 mg/kg [2]: 70%
CCCCCCN(CCCC(=O)Nc1c(SC)nc(C)nc1N(CC)CC)c1ccccc1 [Example 225, N-[4-(N,N-diethylamino)-2-methyl-6-methylthiopyrimidin-5-yl]-4-(N-hexyl-N-phenylamino)butanamide] | 10 to 100 | 19 | inhibition in vivo at 10 mg/kg [2]: 64%
CCCCCCN(CCCC(=O)Nc1c(SC)nc(C)nc1N1CCOCC1)c1ccccc1 [Example 231, N-[2-methyl-4-methylthio-6-morpholinopyrimidin-5-yl]-4-(N-hexyl-N-phenylamino)butanamide] |  |  | lethal incident (acute toxicity) [4]: no lethal incident was observed
CCCCCCN(CCCC(=O)Nc1c(SC)ncnc1N(CC)CC)c1ccccc1 [Example 232, N-[4-(N,N-diethylamino)-6-methylthiopyrimidin-5-yl]-4-(N-hexyl-N-phenylamino)butanamide] |  |  | inhibition in vivo at 10 mg/kg [2]: 65%; lethal incident (acute toxicity) [4]: no lethal incident was observed
CCCN(CCCC(=O)Nc1c(SC)nc(C)nc1N(CC)CC)c1ccc(OC)cc1 [Example 238, N-[4-(N,N-diethylamino)-2-methyl-6-methylthiopyrimidin-5-yl]-4-[N-(4-methoxyphenyl)-N-propylamino)butanamide] | 100 to 1000 | 110 | inhibition in vivo at 10 mg/kg [2]: 65%
CCCCCCN(CCCC(=O)Nc1c(SC)nc(C)nc1N(CC)CC)c1ccccc1OC [Example 240, N-[4-(N,N-diethylamino)-2-methyl-6-methylthiopyrimidin-5-yl]-4-[N-hexyl-N-(2-methoxyphenyl)amino]butanamide] |  | 73 | lethal incident (acute toxicity) [4]: no lethal incident was observed
